Experimental data: ChEMBL document CHEMBL1128380, “Antimalarial activity of novel ring-contracted artemisinin derivatives” (1995)

Assays:
Format in all cases: functional
Mus musculus [1] = experiment: Antimalarial activity was determined by blood schizonticidal activity in mice (Mus musculus) infected with Plasmodium berghei K173 at 1.25 (mg/kgx5) subcutaneous dosage; Cured/treated = 23/35 on day 7
Mus musculus [2] = experiment: Antimalarial activity was determined by blood schizonticidal activity in mice (Mus musculus) infected with Plasmodium berghei NS at 5 (mg/kg x5) subcutaneous dosage; Cured/treated = 16/18 on day 7
Mus musculus [3] = experiment: Antimalarial activity was determined by Blood schizonticidal activity in mice (Mus musculus) infected with Plasmodium berghei K173 at 2.5 (mg/kgx5) subcutaneous dosage; Cured/treated = 36/36
Mus musculus [4] = experiment: Antimalarial activity was determined by Blood schizonticidal activity in mice (Mus musculus) infected with Plasmodium berghei K173 at 20 (mg/kg x5) peroral dosage; Cured/treated = 34/34
Mus musculus [5] = experiment: Antimalarial activity was determined by blood schizonticidal activity in mice (Mus musculus) infected with Plasmodium berghei NS at 25 (mg/kgx5) peroral dosage; Cured/treated = 7/12 on day 7
Mus musculus [6] = experiment: Antimalarial activity was determined by blood schizonticidal activity in mice (Mus musculus) infected with Plasmodium berghei K173 at 10 (mg/kgx5) subcutaneous dosage; Cured/treated = 0/6 on day 7
Mus musculus [7] = experiment: Antimalarial activity was determined by Blood schizonticidal activity in mice (Mus musculus) infected with Plasmodium berghei K173 at 25 (mg/kgx5) subcutaneous dosage; Cured/treated = 4/4
Mus musculus [8] = experiment: Antimalarial activity was determined by blood schizonticidal activity in mice (Mus musculus) infected with Plasmodium berghei K173 at 5 (mg/kg x5) subcutaneous dosage; Cured/treated = 4/6 on day 7
Mus musculus [9] = experiment: Antimalarial activity was determined by Blood schizonticidal activity in mice (Mus musculus) infected with Plasmodium berghei NS at 7.5 (mg/kg x5) peroral dosage; Cured/treated = 8/8
Mus musculus [10] = experiment: Antimalarial activity was determined by Blood schizonticidal activity in mice (Mus musculus) infected with Plasmodium berghei K173 at 0.625 (mg/kg x5) subcutaneous dosage; Cured/treated = 14/19 on day 7
Mus musculus [11] = experiment: Antimalarial activity was determined by Blood schizonticidal activity in mice (Mus musculus) infected with Plasmodium berghei K173 at 20 (mg/kg x5) peroral dosage; Cured/treated = 4/12 on day 7
Mus musculus [12] = experiment: Antimalarial activity was determined by Blood schizonticidal activity in mice (Mus musculus) infected with Plasmodium berghei K173 at 25 (mg/kgx5) peroral dosage; Cured/treated = 10/12 on day 7
Mus musculus [13] = experiment: Antimalarial activity was determined by Blood schizonticidal activity in mice (Mus musculus) infected with Plasmodium berghei K173 at 1.25 (mg/kgx5) subcutaneous dosage; Cured/treated = 30/30 on day 7
Mus musculus [14] = experiment: Antimalarial activity was determined by blood schizonticidal activity in mice (Mus musculus) infected with Plasmodium berghei K173 at 10 (mg/kgx5) peroral dosage; Cured/treated = 0/6 on day 7
Mus musculus [15] = experiment: Antimalarial activity was determined by Blood schizonticidal activity in mice (Mus musculus) infected with Plasmodium berghei NS at 2.5 (mg/kgx5) subcutaneous dosage; Cured/treated = 11/14
Mus musculus [16] = experiment: Antimalarial activity was determined by blood schizonticidal activity in mice (Mus musculus) infected with Plasmodium berghei NS at 5 (mg/kg x5) subcutaneous dosage; Cured/treated = 19/20 on day 7
Mus musculus [17] = experiment: Antimalarial activity was determined by Blood schizonticidal activity in mice (Mus musculus) infected with Plasmodium berghei NS at 25 (mg/kgx5) peroral dosage; Cured/treated = 0/6
Mus musculus [18] = experiment: Antimalarial activity was determined by Blood schizonticidal activity in mice (Mus musculus) infected with Plasmodium berghei NS at 5 (mg/kg x5) subcutaneous dosage; Cured/treated = 10/10
Mus musculus [19] = experiment: Antimalarial activity was determined by Blood schizonticidal activity in mice (Mus musculus) infected with Plasmodium berghei K173 at 2.5 (mg/kgx5) subcutaneous dosage; Cured/treated = 0/6 on day 7
Mus musculus [20] = experiment: Antimalarial activity was determined by blood schizonticidal activity in mice (Mus musculus) infected with Plasmodium berghei K173 at 25 (mg/kgx5) peroral dosage; Cured/treated = 0/6
Mus musculus [21] = experiment: Antimalarial activity was determined by Blood schizonticidal activity in mice (Mus musculus) infected with Plasmodium berghei K173 at 0.625 (mg/kg x5) subcutaneous dosage; Cured/treated = 6/6 on day 7
Mus musculus [22] = experiment: Antimalarial activity was determined by Blood schizonticidal activity in mice (Mus musculus) infected with Plasmodium berghei K173 at 12.5 (mg/kg x5) peroral dosage; Cured/treated = 3/6 on day 7
Mus musculus [23] = experiment: Antimalarial activity was determined by Blood schizonticidal activity in mice (Mus musculus) infected with Plasmodium berghei NS at 25 (mg/kgx5) peroral dosage; Cured/treated = 6/6
Mus musculus [24] = experiment: Antimalarial activity was determined by blood schizonticidal activity in mice (Mus musculus) infected with Plasmodium berghei K173 at 25 (mg/kgx5) peroral dosage; Cured/treated = 6/6 on day 7
Mus musculus [25] = experiment: Antimalarial activity was determined by blood schizonticidal activity in mice (Mus musculus) infected with Plasmodium berghei NS at 12.5 (mg/kg x5) peroral dosage; Cured/treated = 2/6
Mus musculus [26] = experiment: Antimalarial activity was determined by Blood schizonticidal activity in mice (Mus musculus) infected with Plasmodium berghei NS at 2.5 (mg/kgx5) subcutaneous dosage; Cured/treated = 6/6

SMILES: CCO[C@H]1O[C@@H]2O[C@@]3(C)CC[C@H]4[C@H](C)CC[C@@H]([C@H]1C)[C@@]24OO3 [ARTEMOTIL]
- Cured/treated (Mus musculus [1]): 23
- Cured/treated (Mus musculus [2]): 16
- Cured/treated (Mus musculus [3]): 36
- Cured/treated (Mus musculus [4]): 34
- Cured/treated (Mus musculus [5]): 7

SMILES: C[C@@H]1CCC2[C@]34OOC(C)(CCC13)O[C@H]4O[C@]2(C)C=O (single isomer, unassigned)
- Cured/treated (Mus musculus [6]): 0
- Cured/treated (Mus musculus [7]): 4

SMILES: C[C@@H]1CC[C@@H]2[C@]34OO[C@@](C)(CCC13)O[C@H]4O[C@]2(C)C(=O)NCc1ccc(C(F)(F)F)cc1 (stereo partly specified)
- Cured/treated (Mus musculus [8]): 4

SMILES: C[C@H]1[C@@H](OC[C@]2(C)OC3OC4(C)CCC5[C@@H](C)CCC2[C@]35OO4)O[C@@H]2OC3(C)CCC4[C@H](C)CC[C@@H]1[C@]42OO3 (single isomer, unassigned)
- Cured/treated (Mus musculus [9]): 8
- Cured/treated (Mus musculus [10]): 14
- Cured/treated (Mus musculus [11]): 4
- Cured/treated (Mus musculus [12]): 10
- Cured/treated (Mus musculus [13]): 30
- Cured/treated (Mus musculus [14]): 0
- Cured/treated (Mus musculus [15]): 11
- Cured/treated (Mus musculus [16]): 19
- Cured/treated (Mus musculus [17]): 0

SMILES: C=CCOC[C@@]1(C)O[C@@H]2OC3(C)CCC4[C@H](C)CC[C@@H]1[C@]42OO3 (single isomer, unassigned)
- Cured/treated (Mus musculus [18]): 10
- Cured/treated (Mus musculus [19]): 0
- Cured/treated (Mus musculus [20]): 0

SMILES: C[C@H]1[C@H](OC[C@]2(C)OC3OC4(C)CCC5[C@@H](C)CCC2[C@]35OO4)O[C@@H]2OC3(C)CCC4[C@H](C)CC[C@@H]1[C@]42OO3 (single isomer, unassigned)
- Cured/treated (Mus musculus [21]): 6
- Cured/treated (Mus musculus [22]): 3
- Cured/treated (Mus musculus [23]): 6
- Cured/treated (Mus musculus [24]): 6
- Cured/treated (Mus musculus [25]): 2
- Cured/treated (Mus musculus [26]): 6
